In this assay the target is T1, α4β1 integrin (Jurkat T-cell adhesion to IL-1 stimulated endothelial cell monolayers) (Homo sapiens, UniProt P05556+P13612).
T1 construct: a T-cell line, Jurkat, known to express the α4β1 integrin; host or cells: Jurkat T-cell line
The assay can be described thus: Jurkat-endothelial cell adhesion assay (Jurkat EC). Format: cell-based. The conditions noted are these: Jurkat cells on IL-1 stimulated human umbilical vein endothelial cells; read-out: JK/EC (Jurkat EC Assay IC50 value range). On the procedure: Jurkat-endothelial Cell Adhesion Assay:
The following assay established the activity of the present compounds in inhibiting β1-mediated cell adhesion in a representative in vitro system. This assay measures the adhesive interactions of a T-cell line, Jurkat, known to express the α4β1 integrin, to endothelial monolayers in the presence of test compounds. The test compounds were added in increasing concentrations to T-cells and then the T-cell compound mixture was added to IL-1 stimulated endothelial cell monolayers. The plates were incubated, washed and the percentage of attached cells was quantitated.
Human umbilical vein endothelial cells were purchased from Clonetics (San Diego, Calif.) at passage number 2. The cells were grown on 0.5% porcine skin gelatin pre-coated flasks (Sigma, St. Louis Mo.) in EGM-UV media (Clonetics, San Diego, Calif.) supplemented with 10% fetal bovine serum. Cells are refed every 2-3 days reaching confluence by day 4 to 6. […] The endothelial cells are not used following passage 6.
The T-cell line Jurkat was obtained from American Type Tissue Culture Collection (Rockville, Md.) and the cells were cultured in RPMI containing 10% fetal calf serum. The cells were washed twice in Hank's Balanced Salt Solution (HBSS) and resuspended in Dulbecco's Minimal Eagle's Media (DMEM) containing 2.5 mg/ml Human Serum Albumin (HSA). Jurkat cells (1×10^6 cells/ml) were stained with 10 ng/ml BCECF-AM (Molecular Probes, Eugene, Oreg.)) in HBSS without phenol red. The cells were loaded with BCECF for 60 minutes in the dark at 370C, washed 2 times, and resuspended in DMEM-HSA solution.
Confluent endothelial monolayers, grown in 96-well tissue culture plates, were stimulated for 4 hr. at 37° C. with 0.1 ng/ml (˜50 U/ml) recombinant IL-1 (Amgen, Thousand Oaks, Calif.). Following this incubation, the monolayers were washed twice with HBSS and 0.1 ml of DMEM−HSA solution was added. Jurkat cells (5×10^5 cells) were combined with the appropriate concentration of the test compound and 0.1 ml of the Jurkat cell-compound mixture was added to the endothelial cell monolayers. Generally, 100, 20, 5 and 1.25 μM compound concentrations were tested. […] The plates were placed on ice for 5 minutes to allow for Jurkat cell settling and the plates were incubated at 37° C. for 20 minutes. Following this incubation, the monolayers were washed twice with PBS containing 1 mM calcium chloride and 1 mM magnesium chloride and the plates were read using a Millipore Cytofluor 2300 (Marlboro, Mass.). Fluorescence in each well was measured as Arbitrary Fluorescence Units and percent adhesion in the absence of compound was adjusted to 100% and the % adhesion in the presence of compound was calculated. Monolayers were also fixed in 3% paraformaldehyde and evaluated microscopically to verify the adhesion. This procedure is a modification of a previously published method (Cardarelli et al., J. Biol. Chem. 269:18668-18673 (1994)).

The structures appear in SMILES notation. pIC50: −log10 of the molar value.

T1 sequence (P13612 34-1032): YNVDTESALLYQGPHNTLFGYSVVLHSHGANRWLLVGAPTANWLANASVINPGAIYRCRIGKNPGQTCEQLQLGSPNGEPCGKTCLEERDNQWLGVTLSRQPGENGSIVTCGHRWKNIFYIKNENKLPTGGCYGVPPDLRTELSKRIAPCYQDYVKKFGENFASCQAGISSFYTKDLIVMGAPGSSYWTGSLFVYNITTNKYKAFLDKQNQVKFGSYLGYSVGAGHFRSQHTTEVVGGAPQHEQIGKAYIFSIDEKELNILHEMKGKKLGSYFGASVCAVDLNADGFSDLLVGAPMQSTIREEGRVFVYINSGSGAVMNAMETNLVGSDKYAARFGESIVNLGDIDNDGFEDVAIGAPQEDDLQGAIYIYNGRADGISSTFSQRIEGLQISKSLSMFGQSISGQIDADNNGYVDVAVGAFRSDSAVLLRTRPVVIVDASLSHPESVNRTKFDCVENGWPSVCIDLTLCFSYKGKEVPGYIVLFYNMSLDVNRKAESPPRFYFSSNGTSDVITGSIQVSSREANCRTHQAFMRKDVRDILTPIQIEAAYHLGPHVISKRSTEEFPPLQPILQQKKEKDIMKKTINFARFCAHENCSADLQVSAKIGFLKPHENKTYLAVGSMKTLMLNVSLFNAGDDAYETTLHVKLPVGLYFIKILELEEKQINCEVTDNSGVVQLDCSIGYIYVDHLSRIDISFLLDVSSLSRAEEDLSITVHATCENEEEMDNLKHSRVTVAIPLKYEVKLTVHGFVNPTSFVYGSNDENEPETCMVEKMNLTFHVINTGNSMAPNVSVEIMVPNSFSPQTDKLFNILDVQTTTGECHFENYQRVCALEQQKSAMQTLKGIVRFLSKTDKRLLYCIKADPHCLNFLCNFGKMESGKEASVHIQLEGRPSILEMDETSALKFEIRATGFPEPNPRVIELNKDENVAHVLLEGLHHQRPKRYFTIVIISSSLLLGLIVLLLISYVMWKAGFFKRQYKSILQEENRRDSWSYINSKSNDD
T1 sequence (P05556 21-798): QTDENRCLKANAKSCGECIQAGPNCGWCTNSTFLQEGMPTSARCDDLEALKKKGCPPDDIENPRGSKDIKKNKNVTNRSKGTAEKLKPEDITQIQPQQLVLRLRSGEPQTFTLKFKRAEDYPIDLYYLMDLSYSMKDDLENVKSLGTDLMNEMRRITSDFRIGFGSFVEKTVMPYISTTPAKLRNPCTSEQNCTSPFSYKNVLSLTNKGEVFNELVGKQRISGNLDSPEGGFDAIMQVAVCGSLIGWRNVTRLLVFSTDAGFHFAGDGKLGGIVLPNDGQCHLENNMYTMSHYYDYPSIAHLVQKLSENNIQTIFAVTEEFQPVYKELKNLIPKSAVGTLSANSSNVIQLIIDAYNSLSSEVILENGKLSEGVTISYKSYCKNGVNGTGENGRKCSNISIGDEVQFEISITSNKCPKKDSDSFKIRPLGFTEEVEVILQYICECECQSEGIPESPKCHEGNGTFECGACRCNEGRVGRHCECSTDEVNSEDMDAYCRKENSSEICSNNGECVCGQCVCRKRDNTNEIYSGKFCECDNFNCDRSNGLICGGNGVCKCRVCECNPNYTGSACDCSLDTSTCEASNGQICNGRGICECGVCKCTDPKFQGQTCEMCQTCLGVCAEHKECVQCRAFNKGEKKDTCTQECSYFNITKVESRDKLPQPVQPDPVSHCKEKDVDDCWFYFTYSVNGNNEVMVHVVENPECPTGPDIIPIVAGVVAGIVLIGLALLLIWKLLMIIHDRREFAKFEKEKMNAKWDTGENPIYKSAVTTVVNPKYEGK

Turning to `CCOC(=O)N1CSC[C@@H]1C(=O)N[C@@H](Cc1ccc(OCc2c(Cl)cccc2Cl)cc1)C(N)=O` (relative stereo) [Example 90, [S-(R*,R*)]-4-[[[1-[[4-[(2,6-Dichlorophenyl)methoxy]phenyl]methyl]-2-amino-2-oxoethyl]amino]carbonyl]-3-thiazolidinecarboxylic Acid 3-Ethyl Ester], the pIC50 was no more than 6.00.

`O=C(C[C@H]1CC[C@@H](C(=O)O)N1Cc1ccccc1)N[C@@H](Cc1ccc(OCc2c(Cl)cccc2Cl)cc1)C(=O)O` [Example 94, (5R)-5-[2-[[(1S)-1-Carboxy-2-[4-[(2,6-dichlorophenyl)methoxy]phenyl]ethyl]amino]-2-oxoethyl]-1-(phenylmethyl)-L-proline]: the pIC50 is no more than 6.00.

For the compound `O=C(C[C@@H]1CC[C@H](C(=O)O)N1Cc1ccccc1)N[C@@H](Cc1ccc(OCc2c(Cl)cccc2Cl)cc1)C(=O)O` [Example 95, (5S)-5-[2-[[(1S)-1-Carboxy-2-[4-[(2,6-dichlorophenyl)methoxy]phenyl]ethyl]amino]-2-oxoethyl]-1-(phenylmethyl)-D-proline], the pIC50 is no more than 6.00.

Turning to `COC(=O)CCC1(CCC(=O)N[C@@H](Cc2ccc(NC(=O)c3c(Cl)cccc3Cl)cc2)C(=O)OC)CCC(=O)N1C` (stereo partly drawn) [Example 110, 2-[3-[[(1S)-1-[[4-[(2,6-Dichlorobenzoyl)amino]phenyl]methyl]-2-methoxy-2-oxoethyl]amino]-3-oxopropyl]-1-methyl-5-oxo-2-pyrrolidinepropanoic Acid Methyl Ester], the pIC50 is no more than 6.00.

`COC(=O)CCC1(CCC(=O)N[C@@H](Cc2ccc(OCc3c(Cl)cccc3Cl)cc2)C(=O)OC)CCC(=O)N1` (stereo partly drawn) [Example 112, 2-[3-[[(1S)-1-[[4-[(2,6-Dichlorophenyl)methoxy]phenyl]methyl]-2-methoxy-2-oxoethyl]amino]-3-oxopropyl]-5-oxo-2-pyrrolidinepropanoic Acid Methyl Ester]: the pIC50 was no more than 6.00.

`COC(=O)[C@H](Cc1ccc(NC(=O)c2c(Cl)cccc2Cl)cc1)NC(=O)C1CCCCN1C(=O)CCC(=O)O` (stereo partly drawn) [Example 163, 2-[[[(1S)-1-[[4-[(2,6-Dichlorobenzoyl)amino]phenyl]methyl]-2-methoxy-2-oxoethyl]amino]carbonyl]-γ-oxo-1-piperidinebutanoic Acid]: the pIC50 was no more than 6.00.

For `COC(=O)[C@H](Cc1ccc(NC(=O)c2c(Cl)cccc2Cl)cc1)NC(=O)C1CCCCN1C(=O)CC1(CC(=O)O)CCCC1` (stereo partly shown) [Example 164], the pIC50 is no more than 6.00.

In the case of `COC(=O)[C@H](Cc1ccc(NC(=O)c2c(Cl)cccc2Cl)cc1)NC(=O)C1CCCCN1C(=O)CC(C)(C)CC(=O)O` (stereo partly shown) [Example 165], the pIC50 was no less than 6.60.

For the compound `COC(=O)[C@H](Cc1ccc(NC(=O)c2c(Cl)cccc2Cl)cc1)NC(=O)C1CCCCN1C(=O)/C=C\C(=O)O` (stereo partly shown) [Example 166], the pIC50 was no more than 6.00.

Consider `O=C(O)CC1(CC(=O)N2CCCCC2C(=O)N[C@@H](Cc2ccc(NC(=O)c3c(Cl)cccc3Cl)cc2)C(=O)O)CCCC1` (stereo partly shown) [Example 168], for which the pIC50 is no more than 6.00.

On to `CC(C)(CC(=O)O)CC(=O)N1CCCCC1C(=O)N[C@@H](Cc1ccc(NC(=O)c2c(Cl)cccc2Cl)cc1)C(=O)O` (stereo partly shown) [Example 169], for which the pIC50 was no more than 6.00.

Consider `O=C(O)/C=C\C(=O)N1CCCCC1C(=O)N[C@@H](Cc1ccc(NC(=O)c2c(Cl)cccc2Cl)cc1)C(=O)O` (stereo partly shown) [Example 170], for which the pIC50 is no more than 6.00.

`O=C(O)CCC(=O)N1CCCC(C(=O)N[C@@H](Cc2ccc(NC(=O)c3c(Cl)cccc3Cl)cc2)C(=O)O)C1` (stereo partly drawn) [Example 174, 3-[[[(1S)-1-Carboxy-2-[4-[(2,6-dichlorobenzoyl)amino]phenyl]ethyl]amino]carbonyl]-γ-oxo-1-piperidinebutanoic Acid]: the pIC50 is 6.00 to 6.60.

Consider `O=C(O)c1ccc(NC(=O)N2CCC(C(=O)N[C@@H](Cc3ccc(NC(=O)c4c(Cl)cccc4Cl)cc3)C(=O)O)CC2)cc1` [Example 175, N-[[1-[[(4-Carboxyphenyl)amino]carbonyl]-4-piperidinyl]carbonyl]-4-[(2,6-dichlorobenzoyl)amino]-L-phenylalanine], for which the pIC50 is no more than 6.00.

As for `CC(=O)CCC(=O)N1CCCC[C@H]1C(=O)N[C@@H](Cc1ccc(NC(=O)c2c(Cl)cccc2Cl)cc1)C(=O)O` [Example 179], the pIC50 was 6.00 to 6.60.

`COc1ccc(C(=O)N2CCCC[C@H]2C(=O)N[C@@H](Cc2ccc(NC(=O)c3c(Cl)cccc3Cl)cc2)C(=O)O)cc1OC` [Example 180]: the pIC50 is no more than 6.00.

`O=C(O)c1ccc2cc(C(=O)N3CCCC[C@H]3C(=O)N[C@@H](Cc3ccc(NC(=O)c4c(Cl)cccc4Cl)cc3)C(=O)O)ccc2c1` [Example 183]: the pIC50 was no more than 6.00.

In the case of `O=C(O)CNC(=O)N1CCCC(C(=O)N[C@@H](Cc2ccc(NC(=O)c3c(Cl)cccc3Cl)cc2)C(=O)O)C1` (stereo partly shown) [Example 202], the pIC50 is no more than 6.00.

For `O=C(O)c1cccc(C(=O)N2CCCC(C(=O)N[C@@H](Cc3ccc(NC(=O)c4c(Cl)cccc4Cl)cc3)C(=O)O)C2)c1` (stereo partly shown) [Example 205], the pIC50 is 6.00 to 6.60.

As for `O=C(O)c1ccc(NC(=O)N2CCCC(C(=O)N[C@@H](Cc3ccc(NC(=O)c4c(Cl)cccc4Cl)cc3)C(=O)O)C2)cc1` (stereo partly shown) [Example 208], the pIC50 is no more than 6.00.

As for `O=C(O)CCC(=O)N1CCC(C(=O)N[C@@H](Cc2ccc(NC(=O)c3c(Cl)cccc3Cl)cc2)C(=O)O)CC1` [Example 209], the pIC50 is no more than 6.00.

In the case of `O=C(O)CC1(CC(=O)N2CCC(C(=O)N[C@@H](Cc3ccc(NC(=O)c4c(Cl)cccc4Cl)cc3)C(=O)O)CC2)CCCC1` [Example 210], the pIC50 was no more than 6.00.

Consider `CC(C)(CC(=O)O)CC(=O)N1CCC(C(=O)N[C@@H](Cc2ccc(NC(=O)c3c(Cl)cccc3Cl)cc2)C(=O)O)CC1` [Example 211], for which the pIC50 is no more than 6.00.

Take `O=C(O)/C=C\C(=O)N1CCC(C(=O)N[C@@H](Cc2ccc(NC(=O)c3c(Cl)cccc3Cl)cc2)C(=O)O)CC1` [Example 212]: the pIC50 is no more than 6.00.

Take `O=C(O)/C=C/C(=O)N1CCC(C(=O)N[C@@H](Cc2ccc(NC(=O)c3c(Cl)cccc3Cl)cc2)C(=O)O)CC1` [Example 213]: the pIC50 was no more than 6.00.

As for `COCCC(=O)N1CCC(C(=O)N[C@@H](Cc2ccc(NC(=O)c3c(Cl)cccc3Cl)cc2)C(=O)O)CC1` [Example 214], the pIC50 was no more than 6.00.

Turning to `O=C(Nc1ccc(C[C@H](NC(=O)C2CCN(C(=O)C3CCCC(C(=O)O)C3)CC2)C(=O)O)cc1)c1c(Cl)cccc1Cl` (stereo partly shown) [Example 215], the pIC50 is no more than 6.00.

`O=C(O)CNC(=O)N1CCC(C(=O)N[C@@H](Cc2ccc(NC(=O)c3c(Cl)cccc3Cl)cc2)C(=O)O)CC1` [Example 217]: the pIC50 is no more than 6.00.

On to `COc1ccc(C(=O)N2CCC(C(=O)N[C@@H](Cc3ccc(NC(=O)c4c(Cl)cccc4Cl)cc3)C(=O)O)CC2)cc1OC` [Example 218], for which the pIC50 is no more than 6.00.

On to `O=C(O)c1ccccc1C(=O)N1CCC(C(=O)N[C@@H](Cc2ccc(NC(=O)c3c(Cl)cccc3Cl)cc2)C(=O)O)CC1` [Example 219], for which the pIC50 was no more than 6.00.

Consider `O=C(O)c1ccc2cc(C(=O)N3CCC(C(=O)N[C@@H](Cc4ccc(NC(=O)c5c(Cl)cccc5Cl)cc4)C(=O)O)CC3)ccc2c1` [Example 221], for which the pIC50 is no more than 6.00.
